In publication PMC4893628, “Chalcone-based Selective Inhibitors of a C4 Plant Key Enzyme as Novel Potential Herbicides” (Scientific Reports, 2016):
Read-outs that look alike come from different tables or passages of the source.

Legend:
[1] = system: Amaranthus retroflexus; assay: In planta growth experiment, A. retroflexus; assay type: in vivo; conditions: shoots sprayed, 3 mM
Description: Seeds of Amaranthus retroflexus L. (Herbiseed, Twyford, UK) and Brassica napus L. cv. Mozart (Norddeutsche Pflanzenzucht Hans-Georg Lembke KG, Holtsee, Germany) were sown in vermiculite for germination. When cotyledons were fully expanded, seedlings were transplanted into plastic pots with a volume of 0.230 L filled with a substrate containing 50% bottom ash (0–4 mm), 30% peat and 20% pumice gravel (0–4 mm). Plants were watered every other day with 0.03% Hakaphos® Grün solution (Compo Expert GmbH, Münster, Germany) by sub-irrigation. Plants were grown in a climate chamber at 22 °C/20 °C day/night temperature and a day/night length of 16 h/8 h. Relative humidity was adjusted to 70% and light intensity was 320 μmol m^−2 s^−1 PAR (Photosynthetically Active Radiation) at plant level.
When seedlings reached the two-leaf growth stage, plant shoots were sprayed from the top with treatment solutions using spray bottles with a spraying angle of 35° (10 ml, neoLab Migge Laborbedarf-Vertriebs GmbH, Heidelberg, Germany). Treatment solutions were applied from a height of 8.5 cm above the pots. Each pot was sprayed once with a solution volume of 0.135 ml. Treatment solutions contained 2.4% (v/v) DMSO (dimethylsulfoxide, Duchefa Biochemie, Haarlem, the Netherlands), 0.1% (v/v) Tween® and the respective compound at a concentration of 3 mM. The control treatment contained 2.4% (v/v) DMSO, and 0.1% (v/v) Tween20. Further details are given in the Supplementary Information. […]
Experimental design and assessments of in planta experiments
We tested eleven compounds in a first experiment. In a follow-up experiment we tested selected […]
chalcone. Each treatment was repeated 12 times, except for oilseed rape in the second experiment (n=10). Pots were arranged in the growth chamber according to a fully randomized design. Initial growth of the second leaf of A. retroflexus plants was monitored by aquiring images of each plant from above from day zero to day two after treatment. Images were taken […]
from a fixed distance at 90° view angle using the camera Canon EOS 70D equipped with a Canon EF 14 mm/2.8 L II USM lens. Leaf area of single leaves was measured using the ImageJ software31, by drawing the leaf contours using a drawing tablet (Cintiq 22HD, Wacom Europe GmbH, Krefeld, Germany). Conversion of pixel to cm was achieved by using a target of known size inside the image. Six days after the treatment, half of the plants were harvested. Leaf area was assessed using a leaf area meter (LI3100C Area Meter, LI-Cor, Lincoln, Nebraska, USA) and samples were oven-dried at 65°C for seven days to obtain dry weight . Thirteen days after the treatment, this procedure was repeated with the second half of plants.
Chlorophyll fluorescence measurements […]
6 mm leaf discs were cut out of the second leaf and immediately placed into 96-well-plates filled with 300 µL 0.125 % Hoagland’s solution with 1 mM MES-KOH (MES-monohydrate, Merck, Darmstadt, Germany) buffered to a pH of 6.5. The treatment solution contained 1.6 % (v/v) DMSO, 0.1 % (v/v) Tween® 20 and 2',3',4',3,4-Pentahydroxychalcone at a concentration of 2 mM. The control treatment contained 1.6 % (v/v) DMSO, 0.1 % (v/v) Tween® 20. Each leaf disc was treated with 1.5 µL solution placed on top of the leaf discs. Plates were sealed with Parafilm and placed into a climate cabinet with 12h/12h day/night-length and a temperature of 22°C at a light intensity of 130 µmol m-2 s-1. 96 hours after treatment, chlorophyll fluorescence measurements were performed on leaf discs using an Imaging PAM M-Series fluorescence camera (Heinz Walz GmbH, Effeltrich, Germany). Leaf discs were dark adapted for 30 minutes, minimum and maximum chlorophyll fluorescence were obtained and leaf discs were illuminated for 30 minutes

[2] = system: Escherichia coli K-12 MG1655; assay: Bacterial growth in microscale cultivation, E. coli; assay type: cell-based; conditions: relative to control; for activity at 4 µM / activity at 40 µM / activity at 400 µM / activity at 0.4 µM: Escherichia coli
Protocol: (§1) The following bacteria were cultivated in the presence of trans-chalcone derived inhibitors: Corynebacterium glutamicum ATCC13032[43], Escherichia coli K-12 MG1655[44], Pseudomonas putida KT2440[45], and Bacillus subtilis 168[46]. The growth of these bacteria was monitored in flower-well plates shaken at 1200 rpm as backscatter at 620 nm (gain 20) using a BioLector® microscale cultivation system (m2p labs, Baesweiler, Germany). For further experimental details please refer to the Supplementary Information.
(§2) medium or the appropriate minimal medium and shaken at 140 rpm overnight. For inoculation of
(§3) the main culture, cells equivalent to an optical density at 600 nm of 0.5 (C. glutamicum, E. coli,
(§4) and P. putida) or 0.25 (B. subtilis) in 800 µL medium were washed and resuspended in fresh
(§5) media. Inhibitor substances were dissolved in DMSO and added to the media to a final
(§6) Since the least polar trans-chalcone and 2’-hydroxychalcone precipitated in the growth media at
(§7) the highest concentrations, the maximal concentration of these compounds was reduced to 400
(§8) µM and 100 µM, respectively. The final backscatter at 620 nm, the growth rate (h-1), and the
(§9) duration of the lag phase of all cultures were determined in a BioLector microscale cultivation
(§10) system in comparison to negative controls supplemented with the solvent DMSO. A longer lag

[3] = system: Pseudomonas putida KT2440; assay: Bacterial growth in microscale cultivation, P. putida; assay type: cell-based; conditions: relative to control; for activity at 4 µM / activity at 40 µM / activity at 400 µM / activity at 0.4 µM: Pseudomonas putida
Protocol: as §1, §2, §3, §4, §5, §6, §7, §8, §9, §10

[4] = MG1655, complex medium, 4 µM, read-out: Final Backscatter
[5] = MG1655, complex medium, 4 µM, read-out: Growth rate
[6] = MG1655, complex medium, 40 µM, read-out: Final Backscatter
[7] = MG1655, complex medium, 40 µM, read-out: Growth rate
[8] = MG1655, complex medium, 400 µM, read-out: Final Backscatter
[9] = MG1655, complex medium, 400 µM, read-out: Growth rate
[10] = MG1655, minimal medium, 4 µM, read-out: Final Backscatter
[11] = MG1655, minimal medium, 4 µM, read-out: Growth rate
[12] = MG1655, minimal medium, 40 µM, read-out: Final Backscatter
[13] = MG1655, minimal medium, 40 µM, read-out: Growth rate
[14] = MG1655, minimal medium, 400 µM, read-out: Final Backscatter
[15] = MG1655, minimal medium, 400 µM, read-out: Growth rate
[16] = KT2440, complex medium, 4 µM, read-out: Final Backscatter
[17] = KT2440, complex medium, 4 µM, read-out: Growth rate
[18] = KT2440, complex medium, 40 µM, read-out: Final Backscatter
[19] = KT2440, complex medium, 40 µM, read-out: Growth rate
[20] = KT2440, complex medium, 400 µM, read-out: Final Backscatter
[21] = KT2440, complex medium, 400 µM, read-out: Growth rate
[22] = KT2440, minimal medium, 4 µM, read-out: Final Backscatter
[23] = KT2440, minimal medium, 4 µM, read-out: Growth rate
[24] = KT2440, minimal medium, 40 µM, read-out: Final Backscatter
[25] = KT2440, minimal medium, 40 µM, read-out: Growth rate
[26] = KT2440, minimal medium, 400 µM, read-out: Final Backscatter
[27] = KT2440, minimal medium, 400 µM, read-out: Growth rate

SMILES | Influence on plants [1] | activity at 4 µM [2, 4] [%] | activity at 4 µM [2, 5] [%] | activity at 40 µM [2, 6] [%] | activity at 40 µM [2, 7] [%] | activity at 4 µM [2, 10] [%] | activity at 4 µM [2, 11] [%] | activity at 40 µM [2, 12] [%] | activity at 40 µM [2, 13] [%] | Lag Phase ([2]; complex medium, 4 µM) | Lag Phase ([2]; complex medium, 40 µM) | Lag Phase ([2]; minimal medium, 4 µM) | Lag Phase ([2]; minimal medium, 40 µM) | activity at 4 µM [3, 16] [%] | activity at 4 µM [3, 17] [%] | activity at 40 µM [3, 18] [%] | activity at 40 µM [3, 19] [%] | activity at 4 µM [3, 22] [%] | activity at 4 µM [3, 23] [%] | activity at 40 µM [3, 24] [%] | also measured
O=C(/C=C/c1ccc(O)cc1)c1ccc(O)cc1O [Compound 6, 2′,4′,4-Trihydroxychalcone] | No | 98.8 | 96 | 99.5 | 99.1 | 100 | 101 | 98.8 | 107 | 100,0% | 100,0% | 101,8% | 103,5% | 97.7 | 104 | 97.2 | 106 | 99 | 104 | 103 | activity at 400 µM [2, 8]: 95%; activity at 400 µM [2, 9]: 89.8%; activity at 400 µM [2, 14]: 97.7%; activity at 400 µM [2, 15]: 96.4%; Lag Phase ([2]; complex medium, 400 µM): 107,4%; Lag Phase ([2]; minimal medium, 400 µM): 101,8%; activity at 400 µM [3, 20]: 99.9%; activity at 400 µM [3, 21]: 100%; activity at 40 µM [3, 25]: 106%; activity at 400 µM [3, 26]: 117%; activity at 400 µM [3, 27]: 104%; Lag Phase ([3]; complex medium, 4 µM): 99,4%; Lag Phase ([3]; complex medium, 40 µM): 101,7%; Lag Phase ([3]; complex medium, 400 µM): 107,3%; Lag Phase ([3]; minimal medium, 4 µM): 103,3%; Lag Phase ([3]; minimal medium, 40 µM): 105,6%; Lag Phase ([3]; minimal medium, 400 µM): 107,8%
O=C(/C=C/c1ccccc1O)c1ccc(O)cc1O [Compound 7, 2′,4′,2-Trihydroxychalcone] | No | 97.2 | 93.3 | 97.3 | 90.7 | 98.2 | 99.2 | 97.2 | 105 | 107,4% | 111,1% | 88,9% | 99,0% | 99.1 | 100 | 95.3 | 101 | 101 | 98.3 | 100 | activity at 400 µM [2, 8]: 93%; activity at 400 µM [2, 9]: 104%; activity at 400 µM [2, 14]: 97.4%; activity at 400 µM [2, 15]: 103%; Lag Phase ([2]; complex medium, 400 µM): 118,5%; Lag Phase ([2]; minimal medium, 400 µM): 99,3%; activity at 400 µM [3, 20]: 99.9%; activity at 400 µM [3, 21]: 99.6%; activity at 40 µM [3, 25]: 94.3%; activity at 400 µM [3, 26]: 99.8%; activity at 400 µM [3, 27]: 106%; Lag Phase ([3]; complex medium, 4 µM): 100,0%; Lag Phase ([3]; complex medium, 40 µM): 100,0%; Lag Phase ([3]; complex medium, 400 µM): 100,0%; Lag Phase ([3]; minimal medium, 4 µM): 111,6%; Lag Phase ([3]; minimal medium, 40 µM): 101,6%; Lag Phase ([3]; minimal medium, 400 µM): 95,6%
O=C(/C=C/c1ccc(O)c(O)c1)c1ccc(O)cc1O [Compound 8, 2′,4′,3,4-Tetrahydroxy-chalcone] | No | 102 | 95 | 95.7 | 89.4 | 94.1 | 86.4 | 96.6 | 85.3 | 96,7% | 100,0% | 98,1% | 98,1% | 97 | 97.4 | 94.9 | 95.3 | 89.8 | 89 | 94.8 | activity at 0.4 µM ([2]; MG1655, complex medium, 0.4 µM, read-out: Final Backscatter): 98.9%; activity at 0.4 µM ([2]; MG1655, complex medium, 0.4 µM, read-out: Growth rate): 102%; activity at 0.4 µM ([2]; MG1655, minimal medium, 0.4 µM, read-out: Final Backscatter): 92.9%; activity at 0.4 µM ([2]; MG1655, minimal medium, 0.4 µM, read-out: Growth rate): 83.9%; Lag Phase ([2]; complex medium, 0.4 µM): 103,3%; Lag Phase ([2]; minimal medium, 0.4 µM): 96,2%; activity at 0.4 µM ([3]; KT2440, complex medium, 0.4 µM, read-out: Final Backscatter): 94.7%; activity at 0.4 µM ([3]; KT2440, complex medium, 0.4 µM, read-out: Growth rate): 90.8%; activity at 0.4 µM ([3]; KT2440, minimal medium, 0.4 µM, read-out: Final Backscatter): 87%; activity at 0.4 µM ([3]; KT2440, minimal medium, 0.4 µM, read-out: Growth rate): 83.7%; activity at 40 µM [3, 25]: 90%; Lag Phase ([3]; complex medium, 0.4 µM): 92,6%; Lag Phase ([3]; complex medium, 4 µM): 93,2%; Lag Phase ([3]; complex medium, 40 µM): 96,3%; Lag Phase ([3]; minimal medium, 0.4 µM): 99,6%; Lag Phase ([3]; minimal medium, 4 µM): 99,6%; Lag Phase ([3]; minimal medium, 40 µM): 98,5%
